Reference: US12427175B2, “Fecal fungome and therapeutic efficacy of fecal microbiota transplantation” (priority 2018, dated 2025)
“Also recorded” adds a separate entry of the source.

Assays:
gut mycobiota = assay: Fungal ITS2 sequencing of fecal DNA (gut mycobiota diversity, richness, composition); assay type: in vivo, human
Protocol: (§1) Fecal DNA was isolated as described below. 100 mg fecal sample was pre-washed with 1 ml ddH2O and pelleted by centrifugation at 10,000×g for 1 minute. The fecal pellet was re-suspended in 800 μl TE buffer (pH 7.5), supplemented with 1.6 μl 2-Mercaptoethanol and 500 U lyticase (Sigma), and incubated at 37° C. for 60 min. The sample was then centrifuged at 10,000×g for 2 minutes and fecal DNA was subsequently extracted from the pellet using ZR Fecal DNA miniPrep kit (Zymo Research, Orange, CA) according to the protocol. Briefly, fecal pellet was added to the BashingBeadLysis Tube with 750 μl Lysis solution, and then processed at maximum speed for 10 minutes. The lysates were centrifuged at ≥10,000×g for 1 minute. The supernatant was transferred to a Zymo-Spin™ IV Spin Filter in a collection tube and centrifuged at 7,000×g for 1 minute. About 1,200 μl of fecal DNA binding buffer was added to the filtrate in the collection tube, followed by concentration and purification in a new filter tube. Finally, a total of 50 μl eluted DNA with a concentration at 20-100 ng/μl was prepared for each sample.
The final fecal DNA for fungal sequencing was amplified based upon ITS2 (Internal transcribed spacer 2) region using primers as below and PrimeSTAR HS DNA Polymerase kit (TaKaRa, Japan). The primer pairs are ITS2-F: 5′-[…]-3′, ITS2-R: 5′-[…]-3′ (SEQ ID NOs 1 and 2, respectively). ITS2 amplicons were generated with 38 cycles of 3-step PCR: 98° C. 10 s, 59° C. 10 s, and 72° C. 30 s. PCR samples were then sequenced on the Illumina MiSeq PE300 platform (2×300 bp, BGI, China), 151,524±97,694 (number±SD) clean sequences obtained on average (sequence statistics in Table 4).
Raw reads were filtered by SOAPnuke (v 1.5.3) (web site: soap.genomics.org.cn/) developed by BGI as follows: (i) adaptors removed, (ii) read removed if N base is more than 3% of the read, (iii) read removed if bases with quality low than 20 were more than 40% of read, (iv) all duplicates removed. Quality control and data analysis were further implemented in PIPITS (v 1.4.5) 31. Briefly, PIPITS_PREP prepares raw reads from Illumina MiSeq sequencers for ITS extraction; PIPITS_FUNITS extracts ITS2 from the reads; and PIPITS_PROCESS analyses the reads to produce operational taxonomic unit (OTU) abundance tables and the RDP taxonomic assignment table for downstream analysis. The quality trimmed and ITS2 extracted reads were aligned to fungi UNITE database exploiting RDP classifier 2.10 for taxonomic assignment to produce operational taxonomic unit (OTU) abundance table (based on sequence identity >97% identity) and phylotype abundance tables at different taxonomic levels, for downstream analysis.
The fungal OTU and phylptype abundance data were imported into R 3.2.3. Richness, diversity, and evenness calculation were performed using the estimated richness function of the phyloseq package. Spearman correlation and their significance were calculated using the cor and cor.test functions in R, respectively. […] Correlation plots were generated using the corrplot package in R. Heat maps were generated using the pheatmap package in R.
To compare differences in the configurations of fungal and bacterial microbiomes between CDI patients and healthy controls, between FMT responders and non-responders, between FMT treatment and vancomycin (STD) treatment, Lefse analyses were performed on the Huttenhower lab Galaxy server (web site: huttenhower.sph.harvard.edu/galaxy/) by importing the […] and bacterial relative abundance values and associated sample metadata, with FDR adjusted p value <0.05 considered significant and effect size calculated. […]

[1] = system: Clostridium difficile infection (CDI); assay: Randomised controlled trial of FMT versus vancomycin (STD) in patients with CDI: treatment outcome; assay type: in vivo, human
Protocol: The current study was a sub-study from a randomised controlled trial (RCT) of FMT versus vancomycin (standard therapy, STD) for patients with CDI. Consecutive CDI subjects enrolled into this randomised controlled trial were invited to participate in a substudy of assessment of fecal microbiota. Patients were included if they had three or more loose or watery stools per day for at least two consecutive days or eight or more soft or loose stools in 48 hours and a positive stool test for C. difficile based on a two-step testing algorithm in our hospital, a positive GDH (Glutamate dehydrogenase) screening test followed by a positive polymerase chain reaction (PCR) test of C. difficile. A total of 31 subjects with CDI and 24 healthy household controls were recruited and stool samples at baseline were obtained for analyses of fungal and bacterial microbiomes. Among them, 24 CDI subjects consented to have stool samples collected serially after treatment for microbiome analysis. 16 CDI subjects were treated with FMT and 8 were treated with vancomycin, and they were followed up at baseline and at weeks 2, 4, 10 and 16 after treatment (FIG. 6). Subjects in the FMT group received 5 days of vancomycin followed by donor infused stool via nasojejunal route and those who had STD received oral vancomycin 500 mg orally four times per day for 10 days. A computer-generated randomization schedule was used to assign patients to the treatment sequences. All patients kept a stool diary and were questioned about stool frequency and consistency and medication use.
Treatment response was defined as an absence of diarrhea or persistent diarrhea that could be explained by other causes with a negative stool test for C. difficile toxin, while relapse was defined as diarrhea with a positive stool test for C. difficile toxin. […]
In subjects who received FMT, a nasoduodenal tube was inserted with radiology guidance. […] The tube was removed 30 minutes after the infusion, and patients were monitored for 2 hours. […]

gut bacterial microbiota = assay: Bacterial 16S rRNA sequencing of fecal DNA (bacterial microbiota diversity, richness); assay type: in vivo, human; details: responders
Protocol: as §1
The final fecal DNA samples were subject to bacterial 16S rRNA V4 region amplification and sequenced on the Illumina MiSeq PE250 platform (2×250 bp, BGI, China), 132,081±65,429 (number±SD) sequences obtained on average (sequence statistics in Table 5). […]

C. albicans = assay: Enumeration of C. albicans in feces of mice by cultivation on SDA; assay type: in vivo, mouse (C57BL/6); details: day 4 after administration of C. albicans, fluconazole in drinking water
Protocol: Mice was initially colonized with C. albicans (2×10^8 cfu per mouse) after 3 days of antibiotic cocktail treatment in the drinking water, followed by 4 days of fluconazole treatment supplemented in the drinking water (0.5 mg/mL, Sigma). […] Both C. difficile load and C. albicans load were enumerated by cultivation on Day 0 before FMT and Day 1 after FMT.
C. albicans (10231, purchased from ATCC, USA) was administered to mice (2×10^8 cfu per mouse) via gavage after 3-day antibiotic treatment or supplemented in donor stool slurry at the time of donor stool infusion.

C. difficile = assay: Antifungal (fluconazole) treatment before FMT in mice with di-colonisation of C. albicans and C. difficile; assay type: in vivo, mouse (C57BL/6); details: recipient mice colonized with C. albicans; fluconazole 0.5 mg/mL in drinking water 4 days before stool infusion
Protocol: Mice was initially colonized with C. albicans (2×10^8 cfu per mouse) after 3 days of antibiotic cocktail treatment in the drinking water, followed by 4 days of fluconazole treatment supplemented in the drinking water (0.5 mg/mL, Sigma). Then the mice were subjected to C. difficile administration (10^7 spores per mice) through gavage after a consecutive 1.5-day antibiotic cocktail- and 1.5-day free water-drinking. Human stool infusion was performed 2 days later after C. difficile gavage. Both C. difficile load and C. albicans load were enumerated by cultivation on Day 0 before FMT and Day 1 after FMT.
Mouse stool were collected both before and after stool infusion. Fecal C. difficile and C. albicans burdens on day 0 before and day 1 after stool infusion were measured by cultivation. Samples were diluted in PBS and respectively plated on taurocholate cycloserine cefoxitin fructose agar (TCCFA) for quantification of C. difficile burden, on Sabouraud dextrose agar (SDA) for quantification of C. albicans load. Stool samples prior to C. albicans colonization from antibiotic-treated mice were plated on SDA to ensure that mice were C. albicans culture negative.

Structure (SMILES) | alterations in fungal richness and diversity during longitudinal follow-up (gut mycobiota; 8 CDI subjects treated with vancomycin) | CDI subjects with an increase in gut fungal richness after treatment (gut mycobiota; 11 out of 16 (FMT), 3 out of 8 (vancomycin)) [%] | CDI subjects with an increase in gut fungal diversity after treatment (gut mycobiota; 13 out of 16 (FMT), 3 out of 8 (vancomycin)) [%] | fungal genera enriched in treatment responders after treatment (LefSe) (gut mycobiota; all follow-up samples of treatment responders) | genus Candida in fungal composition after treatment (gut mycobiota; during follow-up across STD subjects) | relative abundance of fecal C. albicans after treatment (gut mycobiota; last follow-up vs baseline, vancomycin: STD responders) | subjects who developed recurrence of CDI (non-responders) ([1]; 16 subjects on FMT, 8 on vancomycin) | subjects cured of CDI / symptom-free with negative stool C. difficile toxin at last follow-up (responders) ([1]; 16 subjects on FMT, 8 on vancomycin, median follow-up of 16 weeks) | Recurrence at week ([1]; individual CDI subject with recurrence, listed as STD) | change in bacterial diversity after treatment (gut bacterial microbiota) | C. albicans in feces by cultivation (C. albicans) | efficacy of FMT in clearing C. difficile infection after anti-fungal treatment (C. difficile)
CN[C@H](CC(C)C)C(=O)N[C@H]1C(=O)N[C@@H](CC(N)=O)C(=O)N[C@H]2C(=O)N[C@H]3C(=O)N[C@H](C(=O)N[C@H](C(=O)O)c4cc(O)cc(O)c4-c4cc3ccc4O)[C@H](O)c3ccc(c(Cl)c3)Oc3cc2cc(c3O[C@@H]2O[C@H](CO)[C@@H](O)[C@H](O)[C@H]2O[C@H]2C[C@](C)(N)[C@H](O)[C@H](C)O2)Oc2ccc(cc2Cl)[C@H]1O [vancomycin] | inconsistent alterations | 37.5 | 37.5 | Candida, Talaromyces, Erythrobasidium, Periconia, Stemphylium, Ganoderma | marked expansion | decrease | three | 5 of the 8 and Five of the eight | week 12; also recorded: week 7; also recorded: week 5 | significant increase |  | 
OC(Cn1cncn1)(Cn1cncn1)c1ccc(F)cc1F [fluconazole] |  |  |  |  |  |  |  |  |  |  | negative | restored the efficacy of FMT in clearing C. difficile infection
